Publication PMC11820896, “New Compounds with Enhanced Biological Activity Through the Strategic Introduction of Silylated Groups into Hydroxystearic Acids” (Molecules, 2025)

Assays:
HT29 cells [1] = assay: Neutral lipid staining (LipidTOX), confocal microscopy; type: cell-based, human; conditions: 50 nM, 48 h
Experimental: HT29 cells were grown on glass coverslips, treated as described above, and then washed three times with PBS. The intracellular accumulation of neutral lipids was assessed using LipidTOX™ Red Neutral Lipid Dye (Thermo Fisher Scientific, Waltham, MA, USA) according to the manufacturer’s indications. Specimens embedded in Mowiol were analyzed by confocal microscopy using a Nikon C1si confocal microscope (Nikon, Tokyo, Japan). Fluorescence was excited with a laser tuned at 595 nm, and detected at 650 nm.

HT29 cells [2] = assay: Western blot of γH2AX (DNA damage); type: cell-based, human; conditions: 50 nM, 6 h
Experimental: (§1) HT29 were seeded at a density of 1.5 × 10^4 cell/cm^2 in a Petri dish and, after 24 h, treated for 6 h with 50 nM of compound 4. Cells were harvested, and histones were extracted by previously isolated nuclei according to […] al.. The proteins were resolved on a 10% gel in MES buffer at 200 V for 35 min and immunoblotted with mouse anti-acetylated lysines (Millipore, Billerica, MA, USA) or rabbit anti-γH2Ax (Santa Cruz Biotechnology, Dallas, TX, USA) primary antibodies. The membranes were developed with Clarity Western ECL Substrate (Bio-Rad, Hercules, CA, USA) after incubation with mouse or rabbit secondary horseradish peroxidase-conjugated antibody (GE Healthcare, Chicago, IL, USA). SDS-PAGE was stained with Coomassie Brilliant Blue R-250 (Bio-Rad, Hercules, CA, USA), while densitometric analyses were performed using a Fluor-S Max MultiImager (Bio-Rad, Hercules, CA, USA), and relative quantification of histone acetylation and histone H2Ax phosphorylation signals were normalized to the H1 signal as a control.

[3] = tested on: histones H2/H3 and H4 of HT29 cells; assay: Histone acetylation status, Western blot; type: cell-based, human; conditions: 50 nM, 6 h
Experimental: as §1

U2OS = assay: MTT assay, U2OS cells; type: cell-based; conditions: Homo sapiens, means of four experiments, na = not active, read-out: In vitro cytotoxic activity (IC50), U2OS
Experimental: (§2) The human colorectal adenocarcinoma (Caco-2), human colorectal adenocarcinoma (HT29), normal human intestinal (I407), human cervical cancer (HeLa), human breast cancer (MCF7), human bone osteosarcoma (U2OS), and human acute T-cell leukemia (Jurkat J6) cell lines were purchased from American Type Culture Collection (ATCC, Manassas, VA, USA). Cells were cultured in RPMI 1640 medium (Labtek Eurobio, Milan, Italy), supplemented with 10% FCS (Euroclone, Milano, Italy) and 2 mM L-glutamine (Sigma-Aldrich, Milano, Italy), at 37 °C and in a 5% CO2 atmosphere. The compounds were dissolved in DMSO in a 30–40 mM stock solution. In cell treatments, the final DMSO concentration never exceeded 0.1%.
(§3) Cells were seeded in a 96-well culture plastic plate (Sarsted, Milan, Italy), at 5 × 10^4 cells/well and, after 24 h, were exposed to increasing concentrations of the different compounds (from 1 nM to 500 nM) dissolved in RPMI 1640 medium. An MTT assay was performed according to Micheletti et al..
(§4) The absorbance at 570 nm was measured using a multi-well plate reader (Tecan, Männedorf, Switzerland), and data were analyzed by Prism GraphPad 8 software and expressed as IC50 nM.

I407 = assay: MTT assay, normal I407 cells; type: cell-based; conditions: Homo sapiens; normal intestinal line; MTT after 24 h of treatment; means of four experiments
Experimental: as §2, §3, §4

Caco-2 = assay: MTT assay, Caco-2 cells; type: cell-based, human; conditions: Homo sapiens, MTT after 24 h of treatment, means of four experiments
Experimental: as §2, §3, §4

HCT116 = assay: MTT assay, HCT116 cells; type: cell-based, human
Experimental: as §3, with “Micheletti et” left out, “al.. The absorbance at 570 nm was measured using a multi-well plate reader (Tecan, Männedorf, Switzerland), and data were analyzed by Prism GraphPad 8 software and expressed as IC50 nM.” for “al..”

HT29 cells [4] = assay: Western blot of tyrosine residue phosphorylation; type: cell-based, human; conditions: most at proteins above 50 KDa
Experimental: HT29 cells were seeded at a density of 5.0 × 10^4 cells/cm^2 in a Petri dish and treated with 50 nM of compound 4 for 48 h. Cells were then washed with PBS and incubated with the lysis buffer radio immunoprecipitation assay (RIPA) at 4 °C for 15 min with agitation. The proteins were quantified using the Bio-Rad protein assay (Bio-Rad, Hercules, CA, USA) and analyzed by SDS-PAGE and Western blot.
For the analysis of protein phosphorylation, protein samples (30 μg) were separated on 12% SDS-PAGE in Tris-glycine buffer by electrophoresis at 200 V for 1 h. […] Densitometric analysis was performed with ImageLab 6.1 software (Bio-Rad, Hercules, CA, USA), and bands were normalized to the respective total protein content. For SCD1 analysis, protein samples were resolved on a 10% gel in MOPS buffer at 200 V for 45 min. After electrophoresis and Western blot, the nitrocellulose membrane was incubated overnight at 4 °C with primary antibody anti-SCD1 (Biorbyt, Durham, NC, USA) diluted in PBS-TWEEN 20 0.1%. The membrane was incubated for 1 h with a secondary horseradish peroxidase-conjugated antibody (GE Healthcare, Chicago, IL, USA) and then detected as described above. Quantification was completed by a Fluor-S Max MultiImager (Bio-Rad, Hercules, CA, USA) using a β-tubulin signal as a control.

HT29 cells [5] = assay: ROS assay (DClFDA staining); type: cell-based, human; conditions: 24 h treatment
Experimental: ROS were detected by DClFDA staining. This probe is not fluorescent and is permeable to alive cells, where the acetometoxyesther is cleaved by the […] intracellular estherases. This product is made fluorescent by the concomitant action of ROS, which peroxidize the molecule. The intensity of the fluorescence is, therefore, proportional to the production of intracellular ROS. HT29 cells were grown on a 96-well black plate, treated for 24 h with 4, washed in Hanks’ buffer, stained with 2 µM DClFDA, and incubated at 37 °C in the dark for 30 min. Negative controls were treated in the same way, but DClFDA was not added to these samples. The cells were washed in fresh Hanks’ buffer and resuspended in Hanks’ buffer containing Hoechst 33342 1 µg/mL to stain cell nuclei, to evaluate the cell density in the wells. The fluorescences were read with the plate reader Ensight (Perkin Elmer, Waltham, MA, USA) with excitation wavelengths, respectively, 488 nm for DClF and 360 nm for Hoechst and emission wavelength 535 nm for DClF and 454 for Hoechst 33342. The intensity of DClF fluorescence was normalized on Hoechst fluorescence and is expressed in Arbitrary Units (AU).

CCCCCCCCC[C@H](CCCCCCCC(=O)O)O[Si](C)(C)C(C)(C)C [Compound 4, (R)-9-((tert-butyldimethylsilyl)oxy)octadecanoic acid]
accumulation of lipid droplets (neutral lipids) (HT29 cells [1]): significantly reduces
changes in the γH2AX marker (HT29 cells [2]): does not induce any changes
acetylation state of histones H2/H3 and H4 [3]: extended increase
IC50 (U2OS): 0.03681 ± 0.00018 µM
IC50 (I407): 61.91 ± 0.26 nM
IC50 (Caco-2): 23.39 ± 0.12 nM
IC50 (HCT116; Homo sapiens, HCT-116, MTT after 24 h of treatment, means of four experiments): 21.49 ± 0.16 nM
S.I. (Selective Index), HCT116 (HCT116; versus normal I407 cells): 2.88
phosphorylation levels at tyrosine residues of proteins (HT29 cells [4]): decrease in phosphorylation levels
change in ROS content (HT29 cells [5]): does not lead to a change
